“And” between values parts separate entries of the source, which are not always exact repeats. Equal values may be shown once. Read-outs that look alike come from different tables or passages of the source.
Legend:
[1] = test system: MLKL^−/− HT29 cells expressing MLKL-FKBP^F36V; assay type: cell-based; details: for Live cells (%PI negative) after TNF+911+zVAD: MLKL-/- + MLKL FKBPF36V, independent experiments
Method: (§1) Cell death was assessed by flow cytometric analysis of PI exclusion. […] Cell death was assessed by flow cytometric analysis of PI exclusion. […] Cell death was assessed by flow cytometric analysis of PI exclusion. e N = 4, f N = 3 independent experiments (symbols), EB represent mean ± SD. g Western from MLKL^−/−CASP8^−/− HT29 cells stably expressing the doxycycline-inducible C-terminal fusion protein, MLKL-NanoLuc (MLKL-NLuc) and constitutively expressing the C-terminal fusion protein caspase-8-FKBP^F36V. […] Cell death was assessed using an IncuCyte and Cytotox-Red uptake. N = 3 independent experiments, one representative experiment shown, EB represent mean ± SD.

Fibrillarin-FKBP^F36V = biological target: T1, Fibrillarin-FKBP^F36V (Homo sapiens, UniProt P62942, F37V); assay type: cell-based; details: 500 nM, 10 h
T1 construct: endogenous in cells; host or cells: 293T, CRISPR/PITCh knock-in at the FBL locus
T1 sequence (P62942 whole entry F37V): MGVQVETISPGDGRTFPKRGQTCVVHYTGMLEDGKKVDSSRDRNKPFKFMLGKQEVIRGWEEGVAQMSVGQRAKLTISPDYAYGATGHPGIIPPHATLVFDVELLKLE

[2] = biological target: T2, Halo-EGFP-NanoLuc-FKBP^F36V (H-E-N-F) fusion protein (UniProt P0A3G2+P62942+Q9GV45, A155T/A167V/A172T/A224E/A31E/A60N/A81I/C128F/C176G/D78G/E160K/E257K/F37V/F95D/H272N/I117V/K175M/K195N/K70R/L47V/L54V/L88M/L99Q/M102K/N193R/N227D/P142E/P291S/Q151K/Q38R/Q45L/S2A/S58T/T264A/V71I/Y165I/Y273L/Y87F); assay type: cell-based; parameters: expressed in transfected cells; host or cells: immortalized mouse dermal fibroblasts (iMDFs), ubiquitin promoter, constitutive; details: 500 nM; for time up to which degradation was maintained, degrader removed at 5 h: 24 or 48 h after removal
Target sequence in this assay (P0A3G2 other isoform, or with tags, fused parts or gaps with the stated changes): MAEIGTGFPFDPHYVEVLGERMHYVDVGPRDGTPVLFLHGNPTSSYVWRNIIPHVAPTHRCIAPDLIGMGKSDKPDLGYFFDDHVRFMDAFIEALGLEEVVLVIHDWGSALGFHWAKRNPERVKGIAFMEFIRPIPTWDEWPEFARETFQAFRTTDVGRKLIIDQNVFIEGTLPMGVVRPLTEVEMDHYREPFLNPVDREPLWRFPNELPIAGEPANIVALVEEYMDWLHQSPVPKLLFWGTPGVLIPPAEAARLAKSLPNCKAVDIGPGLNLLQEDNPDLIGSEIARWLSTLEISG
Target sequence in this assay (Q9GV45 other isoform, or with tags, fused parts or gaps with the stated changes): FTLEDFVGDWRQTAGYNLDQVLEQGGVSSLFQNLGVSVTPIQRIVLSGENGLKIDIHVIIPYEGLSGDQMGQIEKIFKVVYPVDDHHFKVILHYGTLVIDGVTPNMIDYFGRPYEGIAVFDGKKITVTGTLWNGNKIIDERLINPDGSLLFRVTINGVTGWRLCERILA
Target sequence in this assay (P62942 whole entry F37V, the tested form may be a part): as the sequence (P62942 whole entry F37V) above

wild-type HT29 cells = experiment: Necroptosis assay (PI exclusion, flow cytometry), wild-type HT29 cells, TNF+SM+IDN; assay type: cell-based, human; details: sheet S5H
Method: To simulate necroptosis, cells were seeded into 96-well plates ±40 ng/mL doxycycline, to induce construct expression, and treated with 100 ng/mL FLAG-TNF (recombinant human, in-house), 500 nM compound A Smac mimetic (kindly gifted by TetraLogics Pharmaceuticals) and 5 μM IDN-6556 (Cayman) or 10 uM Z-VAD-fmk (Selleckchem) overnight (16–24 h). Degrader compounds or a DMSO vehicle control were added for 5 h, as stated in the Fig. legends. Cells were detached using Trypsin-EDTA (Merck) and resuspended in cell supernatants containing 10 μg/mL propidium iodide (PI). PI exclusion analysis was performed using an LSR II flow cytometer (Becton Dickinson, NJ) with 10,000 single-cell events per sample. Flow cytometry data were analysed using WEASEL version 2.7 software (Frank Battye).
Supplementary Figure 5. […]
NC4. Data are representative of N = 3 independent experiments. f-h. HT29 cells were stimulated with DMSO (control) or 500 nM of degrader for 5 hours before the addition of TNF (100 ng/mL) + Smac mimetic (compound A; 500 nM-1 µM) + caspase inhibitor; Emricasan (IDN) (5 µM), for 24 hours. Cell death was assessed by flow cytometric analysis of PI exclusion. N = 3 replicates (symbols) is shown, EB; mean ± SD. Data are representative of N = 3 independent experiments. i. Representative flow cytometry gating strategy. Source data are provided as a Source Data file.

murine MLKL-FKBP^F36V = biological target: T3, murine MLKL-FKBP^F36V (Homo sapiens, UniProt P62942, F37V); assay type: cell-based; details: 31.2-500 nM, 5 h
T3 construct: expressed in transfected cells; host or cells: Mlkl-/- mouse dermal fibroblasts, doxycycline-inducible
T3 sequence (P62942 whole entry F37V): as above
Method: All timepoint experiments were performed as reverse timepoints in order to harvest all cells at the same time. At the indicated time points cells were lysed in NuPAGE LDS lysis buffer (Invitrogen) diluted to 1× in DISC lysis buffer (20 mM Tris-HCl pH7.5, 150 mM NaCl, 2 mM EDTA pH 8.0, 1% Triton X-100, 10% glycerol, H20)) supplemented with β-Mercaptoethanol (2%), protease and phosphatase inhibitors. Lysates were run through polypropylene columns (Pierce) to shred DNA. […] Membranes were blocked in 5% skim milk (Devondale) in TBS-T (TBS, 0.1% Tween-20) for 1 h prior to immunoblotting with primary antibodies overnight at 4 °C. Unless stated otherwise, all primary antibodies were diluted in TBS-T (TBS, 0.1% Tween-20) containing 5% BSA (Sigma A8022) and 0.04% sodium azide: HaloTag (1:1000, Promega; G9211), NanoLuc (1:500, Promega; N7000), β-actin (1:20,000, Sigma; A-1798), MLKL (1:1000, produced in-house; 3H1 clone)[39], FKBP (1:1000, R&D systems; 422513), caspase-8 (1:1000, Proteintech; 13423-1-AP), Histone H3 (1:1000, Abcam; ab10799), Cadherin (1:1000, Cell Signalling Technologies; 4068 T). Membranes were washed 3 × 5–10 min in TBS-T (TBS, 0.1% Tween-20) prior to the addition of the appropriate secondary antibodies conjugated with horseradish peroxidase (Jaxon laboratories). […]

[3] = biological target: T2, Halo-EGFP-NanoLuc-FKBP^F36V (H-E-N-F) fusion protein; assay type: cell-based; details: for Blank corrected (470-80) luminescence / Blank corrected Raw Data (470-80): +dox; for Blank corrected (470-80) luminescence: single well replicates; for Blank corrected (470-80): sheet S3B; for Blank corrected (470-80) / Blank corrected Raw Data (470-80): replicate wells; for Blank corrected Raw Data (470-80): PROTAC 500nM
Target sequence in this assay (Q9GV45 other isoform, or with tags, fused parts or gaps with the stated changes): as the sequence (Q9GV45 other isoform, or with tags, fused parts or gaps with the stated changes) above
Target sequence in this assay (P0A3G2 other isoform, or with tags, fused parts or gaps with the stated changes): as the sequence (P0A3G2 other isoform, or with tags, fused parts or gaps with the stated changes) above
Target sequence in this assay (P62942 whole entry F37V, the tested form may be a part): as the sequence (P62942 whole entry F37V) above

[4] = test system: MLKL^−/− HT29 cells expressing untagged MLKL; assay type: cell-based; details: for Live cells (%PI negative) after TNF+911+zVAD: independent experiments
Method: as §1

[5] = test system: MLKL^−/− HT29 cells expressing MLKL-Halo; assay type: cell-based
Method: as §1

Fibrillarin-Halo = biological target: T4, Fibrillarin-Halo (Rhodococcus rhodochrous, UniProt P0A3G2, A155T/A167V/A172T/A224E/C128F/C176G/D78G/E160K/E257K/H272N/K175M/K195N/L47V/L88M/N227D/P291S/S2A/S58T/T264A/Y273L/Y87F); assay type: cell-based; details: 500 nM, 10 h
T4 construct: endogenous in cells; host or cells: 293T, CRISPR/PITCh knock-in at the FBL locus
T4 sequence (P0A3G2 other isoform, or with tags, fused parts or gaps with the stated changes): as the sequence (P0A3G2 other isoform, or with tags, fused parts or gaps with the stated changes) above

[6] = cited from earlier work

## CC[C@H](C(=O)N1CCCC[C@H]1C(=O)O[C@H](CCc1ccc(OC)c(OC)c1)c1ccccc1OCC(=O)NCCCCCCOc1cccc2c1C(=O)N(C1CCC(=O)NC1=O)C2=O)c1cc(OC)c(OC)c(OC)c1 (stereo partly shown) [FC1]
[1]
  concentration sustaining cell survival over 24 h: 62.5 nM
[1]; 31.25nM
  Live cells (%PI negative) after TNF+911+zVAD: 75.8 and 59.7 and 66 and 51.4
[1]; 62.5nM
  Live cells (%PI negative) after TNF+911+zVAD: 81.5 and 75.5 and 67.7 and 62.5
[1]; 250nM
  Live cells (%PI negative) after TNF+911+zVAD: 83.3 and 81.2 and 68.1 and 65
[1]; 500nM
  Live cells (%PI negative) after TNF+911+zVAD: 83.3 and 81.7 and 67.1 and 65
[1]; 1000nM
  Live cells (%PI negative) after TNF+911+zVAD: 81 and 84.9 and 67.9 and 54.3
Fibrillarin-FKBP^F36V
  Dmax (densitometry): ~ 70%
[2]; 5, 24 or 48 h
  time up to which degradation was seen, degrader left in the medium: up to 48 h
[2]
  time up to which degradation was maintained, degrader removed at 5 h: up to 48 h
wild-type HT29 cells; TNF+SM+IDN
  viable cells (PI exclusion): 8.5 and 5.7 and 7.1
wild-type HT29 cells; Untreated (no death stimulus)
  viable cells (PI exclusion): 77.5 and 79.3 and 78.7
Murine MLKL-FKBP^F36V
  degradation of murine MLKL-FKBP^F36V: comparable degradation
[3]; 3.9nM PROTAC
  Blank corrected (470-80) luminescence: 74602 and 77149 and 76062 and 81411
[3]; 7.8nM PROTAC
  Blank corrected (470-80) luminescence: 59479 and 62985 and 66400
[3]; 31.25nM PROTAC
  Blank corrected (470-80) luminescence: 36339 and 35562 and 38426
[3]; 62.5nM PROTAC
  Blank corrected (470-80) luminescence: 25282 and 26898 and 23798 and 25010
[3]; 62.5nM
  Blank corrected (470-80): 88170.7 and 89328.7 and 91847.7 and 71716.7
[3]; 250nM PROTAC
  Blank corrected (470-80) luminescence: 11621 and 12159 and 11550
[3]; 250nM
  Blank corrected (470-80): 43826.7 and 54015.7 and 43806.7 and 52617.7
[3]; 500nM PROTAC, 5h
  Blank corrected (470-80) luminescence: 14990 and 16286 and 14132
[3]; 500nM PROTAC, 8h
  Blank corrected (470-80) luminescence: 14691 and 12990 and 15151
[3]; 500nM PROTAC, 24h
  Blank corrected (470-80) luminescence: 19581 and 16848 and 19949 and 18475
[3]; 500nM PROTAC
  Blank corrected (470-80) luminescence: 10379 and 10950 and 11612
[3]; 500nM
  Blank corrected (470-80): 41968.7 and 40671.7 and 43532.7 and 41295.7
[3]; 1uM PROTAC
  Blank corrected (470-80) luminescence: 13507 and 14074 and 13991 and 15263
[3]; 1uM
  Blank corrected (470-80): 51312.7 and 60071.7 and 47699.7 and 53692.7
[3]; DMSO (control) co-treatment
  Blank corrected Raw Data (470-80): 8854 and 8375 and 8376 and 8057
[3]; co-treatment with MG132 (10uM)
  Blank corrected Raw Data (470-80): 80455 and 95513 and 84222 and 82486
[4]; MLKL-/- + MLKL, 3.9nM
  Live cells (%PI negative) after TNF+911+zVAD: 6.9 and 6.6 and 8.9 and 5.1
[4]; MLKL-/- + MLKL, 7.8nM
  Live cells (%PI negative) after TNF+911+zVAD: 6.1 and 5.8 and 8.5 and 4.8
[4]; MLKL-/- + MLKL, 31.25nM
  Live cells (%PI negative) after TNF+911+zVAD: 5.7 and 5.5 and 8.3 and 4.7
[4]; MLKL-/- + MLKL, 62.5nM
  Live cells (%PI negative) after TNF+911+zVAD: 6.6 and 6 and 9 and 4.5

## Cc1ncsc1-c1ccc(CNC(=O)[C@@H]2C[C@@H](O)CN2C(=O)[C@@H](NC(=O)C2(C#N)CC2)C(C)(C)C)c(OCCOCCOCCOCCCCCCCl)c1 [HV2]
[5]
  TNF+911+zVAD (PI exclusion): 75.3 and 62.1 and 72
  concentration required to maintain cell survival: 125 nM
[5]; MLKL-/- + MLKL HALO, TNF+911+zVAD, degrader 3.9nM, replicate columns
  TNF+911+zVAD (PI exclusion): 6.8 and 4 and 7.3
[5]; MLKL-/- + MLKL HALO, TNF+911+zVAD, degrader 7.8nM, replicate columns
  TNF+911+zVAD (PI exclusion): 6.9 and 4.5 and 9.3
[5]; MLKL-/- + MLKL HALO, TNF+911+zVAD, degrader 31.25nM, replicate columns
  TNF+911+zVAD (PI exclusion): 33 and 22.8 and 23.9
[5]; MLKL-/- + MLKL HALO, TNF+911+zVAD, degrader 62.5nM, replicate columns
  TNF+911+zVAD (PI exclusion): 77 and 48.6 and 62.6
[5]; MLKL-/- + MLKL HALO, TNF+911+zVAD, degrader 250nM, replicate columns
  TNF+911+zVAD (PI exclusion): 88.6 and 71.9 and 68.6
[5]; MLKL-/- + MLKL HALO, TNF+911+zVAD, degrader 500nM, replicate columns
  TNF+911+zVAD (PI exclusion): 85.7 and 70.1 and 67.1
[5]; MLKL-/- + MLKL HALO, TNF+911+zVAD, degrader 1000nM, replicate columns
  TNF+911+zVAD (PI exclusion): 77.8 and 71.5 and 66.8
[2]
  time up to which degradation was maintained, degrader removed at 5 h: depletion not maintained
wild-type HT29 cells; TNF+SM+IDN
  viable cells (PI exclusion): 9.6 and 6.1 and 6.3
wild-type HT29 cells; Untreated (no death stimulus)
  viable cells (PI exclusion): 75.8 and 75.3 and 68.5
[3]; 3.9nM PROTAC
  Blank corrected (470-80) luminescence: 79470 and 68951 and 78183 and 76420
[3]; 7.8nM PROTAC
  Blank corrected (470-80) luminescence: 72797 and 64329 and 67516 and 60174
[3]; 31.25nM PROTAC
  Blank corrected (470-80) luminescence: 46917 and 44939 and 48832 and 45085
[3]; 62.5nM PROTAC
  Blank corrected (470-80) luminescence: 40512 and 37700 and 38124 and 40329
[3]; 250nM PROTAC
  Blank corrected (470-80) luminescence: 30717 and 30890 and 31914 and 28801
[3]; 500nM PROTAC, 5h
  Blank corrected (470-80) luminescence: 69924 and 50626 and 73472 and 59650
[3]; 500nM PROTAC, 8h
  Blank corrected (470-80) luminescence: 70698 and 62420 and 68286 and 57616
[3]; 500nM PROTAC, 24h
  Blank corrected (470-80) luminescence: 56615 and 44142 and 53902 and 55861
[3]; 500nM PROTAC
  Blank corrected (470-80) luminescence: 27860 and 28299 and 29718 and 30521
[3]; 1uM PROTAC
  Blank corrected (470-80) luminescence: 27861 and 28948 and 28638 and 31530
[3]; DMSO (control) co-treatment
  Blank corrected Raw Data (470-80): 30990 and 24165 and 26494 and 23014
[3]; co-treatment with MG132 (10uM)
  Blank corrected Raw Data (470-80): 55749 and 70265 and 64908 and 78527
Fibrillarin-Halo
  Dmax (densitometry): ~ 94.8%
[4]
  TNF+911+zVAD (PI exclusion): 6.7 and 3.6 and 5.5
[4]; MLKL-/- + MLKL, TNF+911+zVAD, degrader 3.9nM, replicate columns
  TNF+911+zVAD (PI exclusion): 7.3 and 3.4 and 6.6
[4]; MLKL-/- + MLKL, TNF+911+zVAD, degrader 7.8nM, replicate columns
  TNF+911+zVAD (PI exclusion): 7.3 and 4.5 and 5.7
[4]; MLKL-/- + MLKL, TNF+911+zVAD, degrader 31.25nM, replicate columns
  TNF+911+zVAD (PI exclusion): 9.7 and 4.3 and 5.6
[4]; MLKL-/- + MLKL, TNF+911+zVAD, degrader 62.5nM, replicate columns
  TNF+911+zVAD (PI exclusion): 7.8 and 3.5 and 5.8
[4]; MLKL-/- + MLKL, TNF+911+zVAD, degrader 250nM, replicate columns
  TNF+911+zVAD (PI exclusion): 6.5 and 3.9 and 5.8
[4]; MLKL-/- + MLKL, TNF+911+zVAD, degrader 500nM, replicate columns
  TNF+911+zVAD (PI exclusion): 8.6 and 4.3 and 7.2
[4]; MLKL-/- + MLKL, TNF+911+zVAD, degrader 1000nM, replicate columns
  TNF+911+zVAD (PI exclusion): 8.3 and 4 and 5.4

## CO[C@H]1C[C@@H]2CC[C@@H](C)[C@@](O)(O2)C(=O)C(=O)N2CCCC[C@H]2C(=O)O[C@H]([C@H](C)C[C@@H]2CC[C@@H](OCCOCc3cn(CCOCCOCCNc4cccc5c4C(=O)N(C4CCC(=O)NC4=O)C5=O)nn3)[C@H](OC)C2)CC(=O)[C@H](C)/C=C(/C)[C@@H](O)[C@@H](OC)C(=O)[C@H](C)C[C@H](C)\C=C/C=C\C=C/1C (stereo partly shown) [RC32]
[6]
  depletion of substrates in animals: efficient depletion of substrates
  tolerability in animals: well tolerated

— publication PMC9019100, “Development of NanoLuc-targeting protein degraders and a universal reporter system to benchmark tag-targeted degradation platforms” (Nature Communications, 2022)
